According to PubChem BioAssay AID849 (SRMLSC, 2007):
Active and inactive are the calls of the source. No rule for the calls is given here.

system: Saccharomyces cerevisiae lifespan shortening, growth inhibition; assay: yeast lifespan shortening compounds, dose response (AID 849);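 also: yeast growth read as optical density after two days at 30 degrees C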

Row | SMILES | IC50
1 | COc1ccc(CN2CN(C(C)C)CSC2=S)cc1 | 35.3 µM
2 | COc1ccc(OCCNC2CCCC2)cc1 | > 100 µM (inactive)
3 | Oc1c(C(Nc2nc3ccccc3s2)c2ccco2)ccc2cccnc12 (stereo unspecified) | > 100 µM (inactive)
4 | O=C(CN1CCN(c2ncc(C(F)(F)F)cc2Cl)CC1)NCCNc1ncc(C(F)(F)F)cc1Cl | 42.5 µM
5 | Cc1ccc2c(c1)c1c(n2C)-c2[nH]ncc2CC1 | 35.3 µM
6 | Cc1nnc(NC(=O)CSc2nnc(Cc3cccn3C)n2-c2ccccc2)s1 | > 100 µM (inactive)
7 | COc1ccc(-c2n[nH]c(C(F)(F)F)c2-c2cc3ccccc3o2)c(O)c1 | 26.1 µM
8 | COc1ccc(CCNC(=O)c2cnn3c(C(F)F)cc(C)nc23)cc1OC | > 100 µM (inactive)
9 | Oc1cccc2ccc(/C=C/c3cccs3)nc12 | 37.5 µM
10 | N/C(Cc1ccc(Cl)cc1)=N\OC(=O)C1CCCCC1 | 11.5 µM
11 | Cc1cccc(C(=O)CC(=O)c2cc(Cl)ccc2O)c1 | 45.7 µM
12 | N/C(Cc1ccc(Cl)cc1)=N\OC(=O)c1ccccc1 | 27.1 µM
13 | Cc1nc(N/N=C/c2ccccn2)sc1C | 33.7 µM
14 | O=C1OCC(CO)(CO)N=C1NNc1cc(Cl)ccc1Cl | 16.2 µM
15 | O=C(N/N=C/c1cc2c3c(c1O)CCCN3CCC2)c1ccccc1O | 37.5 µM
16 | CCCCCCc1ccc(-c2ncc(N)cn2)cc1 | 25.9 µM
17 | COC(=O)Cc1cc(=O)n(-c2nc3ccccc3[nH]2)[nH]1 | 21.7 µM
18 | CCc1ccc2c(c1)C1(NN=C(c3cccc4ccccc34)S1)C(=O)N2 (stereo unspecified) | 41.3 µM
19 | c1cn2cc(-c3ccc4c(c3)OCO4)nc2s1 | > 100 µM (inactive)
20 | COc1cc(CNCCN2CCOCC2)ccc1OCc1cccc(Cl)c1 | > 100 µM (inactive)
21 | Cc1c2cc(O)c(=O)cc-2oc2cc(O)c(O)cc12 | 28.1 µM
22 | c1ccc2c(c1)oc1c(N3CCOCC3)ncnc12 | 32.1 µM
23 | OC(Cn1cncn1)(c1ccccc1)c1ccccc1 | 13.9 µM
24 | CN1CCN(C2=Cc3cc(Cl)ccc3Sc3cc(F)ccc32)CC1 | 15.2 µM

Row | SMILES | IC50
25 | COc1ccc(OC)c(CCNC(=O)Cn2sc3nc(C)cc(C)c3c2=O)c1 | > 100 µM (inactive)
26 | Cc1ccccc1OCCCN1C(=O)C(=O)c2cccc(C)c21 | > 100 µM (inactive)
27 | CCCn1c(C)cc(C(=O)COC(=O)c2ccc[nH]c2=O)c1C | 35.6 µM
28 | Cc1ccc(C(C[N+](=O)[O-])n2nc(C)cc2C)cc1 (stereo unspecified) | 19.1 µM
29 | CCc1cccc2c(C(=O)COC(=O)c3ccc([N+](=O)[O-])s3)c[nH]c12 | 29.2 µM
30 | O=C(N/N=C/c1sc2ccccc2c1O)c1cccc2ccccc12 | 21 µM
31 | CCc1oc2ccccc2c1C(=O)c1cc(Br)c(O)c(Br)c1 | 49.2 µM
32 | Oc1ccc(/C=N/N=C(c2ccccc2)c2ccccc2)c(O)c1O | 23.7 µM
33 | O=C1C(=O)c2c(C(=O)c3ccccc3)coc2-c2ccccc21 | 13.4 µM
34 | OCCN(CCO)CC(O)COc1ccc(C23CC4CC(CC(C4)C2)C3)cc1 (stereo unspecified) | 35.7 µM
35 | Cc1ccc(COc2ccc(Br)cc2/C=N/O)cc1 | > 100 µM (inactive)
36 | CCc1ccc2c(c1)C1(NN=C(c3ccccc3)S1)C(=O)N2 (stereo unspecified) | 24.6 µM
37 | CC(C)(C)c1nnc(N/N=C/c2cc(Br)ccc2O)n(N)c1=O | 50 µM
38 | N/C(Cc1ccc(Cl)cc1Cl)=N\OC(=O)c1cccs1 | 0.78 µM
39 | Cc1nc(Nc2ccc(Cl)c(Cl)c2)sc1C(=O)Nc1ccccc1 | > 100 µM (inactive)
40 | CCOC(=O)C1CCCCN1C(=O)CCc1c(C)nc2cc(-c3ccccc3)nn2c1C (stereo unspecified) | > 100 µM (inactive)
41 | CCOC(=O)C(=NC(C)CC)NNc1ccc(Br)cc1 (stereo unspecified) | 8.41 µM
42 | COCC(C)OC(=O)/C(C#N)=C\c1coc2ccc(C)cc2c1=O (stereo unspecified) | > 100 µM (inactive)
43 | O=C1C(=O)c2ccccc2-c2ccccc21 | 7.79 µM
44 | Cn1c2ccccc2c(=O)n2c(=O)c3ccccc3cc12 | 52.5 µM
45 | CCc1ccc2c(c1)C1(NN=C(c3ccc(C)cc3)S1)C(=O)N2 (stereo unspecified) | 23.8 µM
46 | Cc1cc(C)nc(N/N=C/C2=C(N3CCOCC3)C(=C\c3ccc(Cl)cc3)/CC2)n1 | > 100 µM (inactive)
47 | OCc1ccnc2c(O)cccc12 | > 100 µM (inactive)
48 | Cc1ccc(N2NC(C)(c3cccs3)NC2=S)cc1 (stereo unspecified) | > 100 µM (inactive)

Row | SMILES | IC50
49 | Cc1ccc(CNC(=O)c2ccc(Cn3nc(C)c(Cl)c3C)o2)cc1 | 12.4 µM
50 | CCOC(=O)c1cnc(-n2nc(C)cc2C)nc1NC1CCCCC1 | 20 µM
51 | Cc1cc2sc(C(=O)O)c(C)c2s1 | 41.6 µM
52 | COC(=O)c1ccc(CSc2ccc3nnc(-c4cccc(F)c4)n3n2)o1 | > 100 µM (inactive)
53 | O=C(Cc1ccccc1)NCCc1cn2ccsc2n1 | > 100 µM (inactive)
54 | O=C1NCCCC1C(=O)N/N=C/c1cccc(O)c1 (stereo unspecified) | > 100 µM (inactive)
55 | O=C(c1c[nH]c(C(=O)C(Cl)(Cl)Cl)c1)c1ccccc1Cl | > 100 µM (inactive)
56 | Oc1ccc(CN2CCCCC2)c2cccnc12 | 46.4 µM
57 | c1ccc(-n2c(-c3ccco3)nnc2-c2ccco2)cc1 | > 100 µM (inactive)
58 | CC1CCCC2(C1)NC(=S)N(c1ccccc1)N2 (stereo unspecified) | 38.2 µM
59 | O=C(CSC1=NCCS1)N1CCN(c2ccc(Cl)cc2)CC1 | > 100 µM (inactive)
60 | Cc1oc(-c2ccc3c(c2)OCCO3)cc1C(=O)O | 16.8 µM
61 | Cc1ccc2[nH]c3c(c2c1)CCc1cn[nH]c1-3 | 15.6 µM
62 | Oc1c(Br)cc(Br)cc1C=Nc1ccc2c(c1)OCO2 | > 100 µM (inactive)
63 | CC1=CC(=O)C=C(C)C1=NOS(=O)(=O)c1ccccc1 | > 100 µM (inactive)
64 | CCOC(=O)/C(=N\Nc1ccccc1Cl)N1CCN(Cc2ccccc2)CC1 | 17.9 µM
65 | C/C(O)=c1/ccc2cccc3nc(C)nc1c23 | 17.6 µM
66 | CCn1c2ccccc2c2cc(Nc3cc(C)nc4ncnn34)ccc21 | > 100 µM (inactive)
67 | O=c1c2ccccc2nc2c3ccccc3c3nncn3n12 | 49.9 µM
68 | O=C(/C(=C/O)N=Nc1ccccc1)c1ccncc1 | 14.5 µM
69 | COc1ccccc1-c1nnc(NC(=O)C(C)SC2=NCCS2)s1 (stereo unspecified) | > 100 µM (inactive)
70 | O=C1OCC(CO)(CO)N=C1NNc1ccc(Cl)c(Cl)c1 | 2.89 µM
71 | Cc1nc(Cl)c2oc3ccccc3c2n1 | > 100 µM (inactive)
72 | O=c1oc2ccccc2cc1-c1cn2cccnc2n1 | > 100 µM (inactive)

Row | SMILES | IC50
73 | OC(CNCC1CCCO1)Cn1c2ccc(Br)cc2c2cc(Br)ccc21 (stereo unspecified) | > 100 µM (inactive)
74 | O=c1[nH]c(Nc2ccccc2)cc2ccccc12 | > 100 µM (inactive)
75 | COc1ccc(/C(C)=N/NC(=O)c2ccc(CSc3cccc4cccnc34)cc2)cc1OC | > 100 µM (inactive)
76 | O=C(ONC1=NCCCCC1)c1ccc(Cl)cc1 | 6.15 µM
77 | CCCc1cc(C(=O)NC2CCCCC2)no1 | > 100 µM (inactive)
78 | Oc1c(Br)cc(Br)cc1/C=N/c1nc2c(s1)CCCC2 | 17.5 µM
79 | COc1cc2c(cc1OC)CN(C(=O)CSc1nnc3scc(-c4ccccc4)n13)CC2 | > 100 µM (inactive)
80 | Clc1cccc(CN2COc3c(cc(Cl)c4cccnc34)C2)c1 | 7.28 µM
81 | CCOC(=O)c1c(N)sc(C(O)(C(F)(F)F)C(F)(F)F)c1-c1ccc(Cl)cc1 | > 100 µM (inactive)
82 | CC(NC(=O)/C(C#N)=C/c1ccc(Cl)c([N+](=O)[O-])c1)c1ccccc1 (stereo unspecified) | > 100 µM (inactive)
83 | O=C(CC(=O)c1ccccc1O)c1ccc(F)cc1 | > 100 µM (inactive)
84 | Cc1[nH]n(-c2ccccc2)c(=O)c1/C=N/Nc1nncc(-c2ccccc2)n1 | 19.3 µM
85 | O=C(Oc1csc(=S)n1C(=O)c1ccccc1)c1ccccc1 | > 100 µM (inactive)
86 | Cc1ccc2nc(-c3ccc(NS(C)(=O)=O)cc3)cc(-c3ccccc3)c2c1 | 43.2 µM
87 | O=c1cc(C(F)(F)F)[nH]c2c(C(F)(F)F)cccc12 | 9.03 µM
88 | CN(O)/C=c1/ccc2c(n1)C(=O)C=CC=2 | 8.11 µM
89 | CCCCOc1ccc(C(=O)NNC(=S)NC(=O)CC)cc1 | 41.5 µM
90 | O=C(OCn1ncc(Br)c(Br)c1=O)c1ccc(F)cc1 | 6.92 µM
91 | COc1ccc(-c2cc(C(=O)N3CCN(c4ncccn4)CC3)c3ccccc3n2)c(OC)c1 | 49.8 µM
92 | N#C/C(=C/c1cn(-c2ccccc2)nc1-c1cccc(OCc2ccc(F)cc2)c1)C(=O)NCCCn1ccnc1 | > 100 µM (inactive)
93 | Clc1ccc(CCNc2nc3ccccc3s2)cc1 | > 100 µM (inactive)
94 | O=C(O)CCn1cc(/C=C/C(=O)c2ccc(Cl)cc2)c(-c2ccc(Br)cc2)n1 | > 100 µM (inactive)
95 | Cc1c(Cl)cccc1N=Cc1ccc([N+](=O)[O-])s1 | > 100 µM (inactive)
96 | O=C(Oc1ccc(Cl)c2cccnc12)c1ccco1 | 14.6 µM

Row | SMILES | IC50
97 | Cc1cc(C(=O)COC(=O)c2ccc[nH]c2=O)c(C)n1-c1ccccc1 | 21.3 µM
98 | CC(C)N=c1scc(-c2cccs2)n1/N=C/c1ccc(O)c(O)c1O | > 100 µM (inactive)
99 | NC(N)=N/N=C/c1ccc(OCc2ccc(Cl)cc2)cc1 | 48.4 µM
100 | Cc1c(N=Cc2cc(Br)cc(Br)c2O)cccc1C(=O)O | 23.7 µM
101 | O=C(Nc1cc(C(F)(F)F)ccc1Cl)C(Sc1cccc[n+]1[O-])c1ccccc1 (stereo unspecified) | 4.89 µM
102 | CCCCn1c(=O)c(C(=O)NCc2ccncc2)c(O)c2ccccc21 | > 100 µM (inactive)
103 | Cc1cc(C)c2c(N=NN3CCOCC3)[nH]nc2n1 | 19.9 µM
104 | O=C(Cc1cccs1)NNC(=S)NC(=O)c1ccccc1 | > 100 µM (inactive)
105 | CCCCCCCCCCCCCCCC[n+]1ccc(C(N)=O)cc1 | 1.1 µM
106 | S=C1SCN(Cc2ccccn2)CN1Cc1ccco1 | 21.3 µM
107 | C=CCc1c(C)c(C#N)c2nc3ccccc3n2c1NCCN(C)C | 44.5 µM
108 | CC(=O)NC1C(=O)N=C(SCC(=O)NC2CCCCC2)NC1=O (stereo unspecified) | > 100 µM (inactive)
109 | Cc1ccc(NC(=O)ON=C2CCCC2)cc1 | 9.19 µM
110 | CC1=C(C)CC2C(=O)N(c3cccc4ccccc34)C(=O)C2C1 (stereo unspecified) | > 100 µM (inactive)
111 | Oc1c(CN2CCCCC2)cc(Br)c2cccnc12 | 11.2 µM
112 | COc1cc(OC)c(C2CC(=O)N3CN(C)CSC3=C2C#N)cc1OC (stereo unspecified) | > 100 µM (inactive)
113 | CC1=NOC(=O)/C1=C/c1ccc(-c2ccc(Cl)cc2)o1 | > 100 µM (inactive)
114 | Cc1nc2ccccc2c2nc3ccccc3n12 | 5.3 µM
115 | CCCCCCCCCCCCCCCC(O)C(N)CO (stereo unspecified) | 33.4 µM
116 | COC1=C(N)C(=O)c2nc(-c3nc(C(=O)O)c(C)c(-c4ccc(OC)c(OC)c4O)c3N)ccc2C1=O | 0.212 µM
